Assays:
S. aureus ATCC 25923 = experiment: MIC, broth dilution, S. aureus; assay type: cell-based; settings: Staphylococcus aureus, ATCC25923, mean (n = 3)
Description: (§1) The susceptibility of bacterial strains S. aureus (ATCC 25923), E. coli (ATCC 25922), and P. aeruginosa (ATCC 27853 or PAO1) to antibiotics and compounds was determined using reported protocols. Additional antimicrobial evaluation against MRSA (ATCC 43300), Klebsiella pneumoniae (ATCC 700603), A. baumannii (ATCC 19606), Candida albicans (ATCC 90028), and Cryptococcus neoformans (ATCC 208821) was undertaken at the Community for Open Antimicrobial Drug Discovery at The University of Queensland (Australia) according to their standard protocols as reported previously. […]
(§2) 2.3. Antimicrobial Assays
(§3) The susceptibility of bacterial strains S. aureus (ATCC 25923), E. coli (ATCC 25922), and P. aeruginosa (ATCC 27853 or PAO1) to antibiotics and compounds was determined in microplates using the standard broth dilution method in accordance with the recommendations of the Comité de l’AntibioGramme de la Société Française de Microbiologie (CA-SFM). Briefly, the minimal inhibitory concentrations (MICs) were determined with an inoculum of 10^5 CFU in 200 µL of Mueller–Hinton broth (MHB) containing two-fold serial dilutions of each drug. The MIC was defined as the lowest […]
(§4) determine all MICs, the measurements were independently repeated in triplicate. Additional antimicrobial evaluation against MRSA (ATCC 43300), Klebsiella pneumoniae (ATCC 700603), A. baumannii (ATCC 19606), Candida albicans (ATCC 90028), and Cryptococcus neoformans (ATCC 208821) was undertaken at the Community for Open Antimicrobial Drug Discovery at The University of Queensland (Australia) according to their standard protocols as reported previously. […]
(§5) For C. neoformans, resazurin was added at 0.006% final concentration to each well and incubated for a further 3 h before MICs were determined by measuring […]
(§6) Colistin and vancomycin were used as positive bacterial inhibitor standards for Gram-negative and Gram-positive bacteria, respectively. Fluconazole was used as a positive fungal inhibitor standard for C. albicans and C. neoformans. The antibiotics were provided in […], with 3 above and 3 below its MIC value, and plated into the first 8 wells of column 23 of the 384-well NBS plates. The quality control (QC) of the assays was determined by the antimicrobial controls and the Z'-factor (using positive and negative controls). Each plate was deemed to fulfil the quality criteria (pass QC) if the Z'- […]
(§7) inhibition at their highest concentration, and no growth inhibition at their lowest concentration.
(§8) 2.4. Determination of the MICs of Antibiotics in the Presence of Synergizing Compounds

E. coli ATCC 25922 = experiment: MIC, broth dilution, E. coli; assay type: cell-based, Escherichia coli; settings: Escherichia coli, ATCC25922, mean (n = 3)
Description: as §1, §2, §3, §4

P. aeruginosa PAO1 = experiment: MIC, broth dilution, P. aeruginosa PAO1; assay type: cell-based; settings: Pseudomonas aeruginosa, mean (n = 3)
Description: as §1, §2, §3, §4, §5, §6, §7, §8

[1] = system: C. neoformans ATCC 208821; experiment: MIC, CO-ADD antifungal assay, C. neoformans; assay type: cell-based, Cryptococcus neoformans; settings: Cryptococcus neoformans, ATCC208821, mean (n = 2)
Description: as §1, §2
The susceptibility of bacterial strains S. aureus (ATCC 25923), E. coli (ATCC 25922), and P. […]
baumannii (ATCC 19606), Candida albicans (ATCC 90028), and Cryptococcus neoformans (ATCC 208821) was undertaken at the Community for Open Antimicrobial Drug Discovery at The University of Queensland (Australia) according to their standard protocols as reported previously. […]
For the antifungal assay, fungi strains were cultured for 3 days on YPD agar at 30 °C. A yeast suspension of 1 × 106 to 5 × 10^6 CFU/mL was prepared from five colonies. These stock suspensions were diluted with yeast nitrogen base (YNB) (Becton Dickinson, 233520) broth to a final concentration of 2.5 × 10^3 CFU/mL. The compounds were serially diluted 2-fold across the wells of 96-well plates (Corning 3641, non-binding surface), with compound concentrations ranging from 0.015 to 64 µg/mL and final volumes of 50 µL, plated in duplicate. Then, 50 µL of the fungi suspension that was previously prepared in YNB broth to the final concentration of 2.5 × 10^3 CFU/mL was added to each well of the compound-containing plates, giving a final compound concentration range of 0.008 to 32 µg/mL. Plates were covered and incubated at 35 °C for 36 h without shaking. C. albicans MICs were determined by measuring the absorbance at OD530. For C. neoformans, resazurin was added at 0.006% final concentration to each well and incubated for a further 3 h before MICs were determined by measuring […]
as §6, §7, §8

[2] = Cytotoxicity assay, HEK293; assay type: cell-based; settings: human; HEK293 cells; mean (n = 2); read-out: Cytotoxicity (IC50), concentration of compound at 50% cytotoxicity
Description: Cytotoxicity assays were conducted using reported protocols (see Supplementary File). […]
HEK293 cells were counted manually in a Neubauer hemocytometer and plated at a density of 5,000 cells/well into each well of the 384-well plates containing the 25x (2 µL) concentrated compounds [26,27]. The medium used was Dulbecco's modified Eagle’s medium (DMEM), supplemented with 10% fetal bovine serum (FBS). Cells were incubated together with the compounds for 20 h at 37 °C, 5% CO2.
To measure cytotoxicity, 5 µL (equals 100 µM final) of resazurin was added to each well after incubation and incubated for further 3 h at 37 °C with 5% CO2. After the final incubation, fluorescence intensity […]
reader. CC50 values (concentration at 50% cytotoxicity) were calculated by normalizing the fluorescence readout, with 74 µg/mL tamoxifen as negative control (0%) and normal cell growth as positive control (100%). The concentration-dependent percentage cytotoxicity was fitted to a dose–response function (using Pipeline Pilot) and CC50 values were determined. […]

P. aeruginosa ATCC 27853 = experiment: Antibiotic enhancement of doxycycline; assay type: cell-based
Description: Antibiotic restoring enhancer concentrations were determined using reported protocols (see Supplementary File).
Briefly, restoring enhancer concentrations were determined with an inoculum of 5x10^5 CFU in 200
µL of MHB containing two-fold serial dilutions of each derivative in the presence of doxycycline at 4.5
The lowest concentration of the polyamine
These measurements were independently repeated in triplicate. […]

## C=C[C@]1(C)C[C@@H](OC(=O)CNCCCNCCCCCCCCCCCCNCCCNCC(=O)O[C@@H]2C[C@@](C)(C=C)[C@@H](O)[C@H](C)[C@]34CCC(=O)[C@H]3[C@@]2(C)[C@H](C)CC4)[C@]2(C)[C@H](C)CC[C@]3(CCC(=O)[C@H]32)[C@@H](C)[C@@H]1O.O=C(O)C(F)(F)F.O=C(O)C(F)(F)F.O=C(O)C(F)(F)F.O=C(O)C(F)(F)F [Compound 9f, N^1,N^1′-(Dodecane-1,12-diyl)bis(N^3-(2-(((3aR,4R,5R,7S,8S,9R,9aS,12R)-8-hydroxy-4,7,9,12-tetramethyl-3-oxo-7-vinyldecahydro-4,9a-propanocyclopenta [8]annulen-5-yl)oxy)-2-oxoethyl)propane-1,3-diaminium) 2,2,2-trifluoroacetate]
S. aureus ATCC 25923
  MIC: 2.1 µM
E. coli ATCC 25922
  MIC: 4.19 µM
P. aeruginosa PAO1
  MIC: 33.5 µM
[1]
  MIC: ≤ 0.17 µM
[2]
  IC50 at 20 h: 8.3 µM
P. aeruginosa ATCC 27853; doxycycline at 4.5 µM
  Dox/P.a.: fold change, ratio between intrinsic MIC of test compound and combination MIC: 4
P. aeruginosa ATCC 27853; doxycycline at 4.5 µM (2 µg/mL)
  Dox/P.a.: concentration required to restore doxycycline activity: 8.38 µM
